Values quoted from earlier work as cited in patent US8333959B2, “Ex-vivo application of solid microparticulate therapeutic agents” (Baxter International Inc., priority 2004, dated 2012).

System: HIV-infected macrophages

CC(C)(C)NC(=O)[C@@H]1C[C@@H]2CCCC[C@@H]2CN1C[C@@H](O)[C@H](Cc1ccccc1)NC(=O)[C@H](CC(N)=O)NC(=O)c1ccc2ccccc2n1 [saquinavir]
antiviral activity in HIV-infected macrophages (HIV-infected macrophages, in vitro, solution vs nanoparticulate formulation): little antiviral activity
antiviral activity in chronically HIV-infected macrophages (concentration of 100 nM, chronically HIV-infected macrophages): completely inactive
